# According to patent US20110207655A1, “CYCLIC DEPSIPEPTIDE COMPOUND AND USE THEREOF” (Astellas Pharma Inc., priority 2008, published 2011):
# Starred links: 1 amine or outer side, 2 acyl side, 3 side chain; linkers in the order of their positions; H or OH if unused. Positions of bridges follow the written chain, without caps; N, C: chain ends. Non-standard residues stand in square brackets, D forms with d. Residues, ends and D or L forms follow the SMILES beside them. *: point of attachment. X8 = CC(=O)NC(C(=O)OC(C(C)C)C(N[*:1])C(=O)[*:2])C(O)C(C)C; X2 = CSCC(O)C(NC(C)=O)C(=O)OC(C(C)C)C(N[*:1])C(=O)[*:2]; X3 = CC(C)C(O[*:3])C(N[*:1])C(=O)[*:2]; X7 = O=C(C(Cc1ccccc1F)O[*:1])[*:2]; X4 = CCCC(=O)NC(C(=O)*)C(O)C(C)C; X5 = CSCC(=O)NC(C(=O)*)C(O)C(C)C; X6 = CCC(=O)NC(C(=O)*)C(O)C(C)C; PhLac = O=C(O)[CH](O)Cc1ccccc1; NMeT = CN[CH](C(=O)O)[CH](C)O; NMeA = CN[CH](C)C(=O)O; NMeDha = C=C(NC)C(=O)O
# Tested on: Gq/11
# Assay: Inhibitory action on Gq/11: LTD4-induced cellular Ca2+ change in CHO cells stably expressing CysLTR2 (FLIPR)
# Type: cell-based
# Conditions: 10 nM LTD4, maximum Fluo-4 fluorescence intensity, read-out: Gq/11 inhibitory activities (IC50 values)
# Protocol: The test was carried out according to the method of Non-Patent Citation 3, using a leukotriene receptor CysLTR2 (cysteinyl leukotriene receptor 2), which is known to activate Gq/11. CHO cells stably expressing CysLTR2 were seeded on a 96-well black/clear bottom plate (manufactured by Becton, Dickinson and Company) at 20,000 cells per well, and after 24 hours of seeding, the medium was discarded. Then, Hanks BSS (GIBCO Inc.) including 2 μM Fluo-4, AM (manufactured by Molecular Probe Co.), 0.004% pluronic acid, 1% FBS, 20 mM HEPES, and 2.5 mM probenecid was added thereto at 100 μL per well, followed by incubation at 37° C. for 1 hour. After incubation, the resultant was washed four times with Hanks BSS including 20 mM HEPES, and Hanks BSS including 20 mm HEPES per well was added thereto 100 μL per well. In addition, 50 μL of a test compound that had been diluted with Hanks BSS including 20 mM HEPES to a final concentration from 1×10^−10 M to 1×10^−5 M was added thereto, followed by being left to stand at room temperature for 30 minutes. The change of cellular Ca^2+ concentration after addition of leukotriene D4 (LTD4, manufactured by Cayman Co.), which is a CysLTR2 ligand, was measured over time using an FLIPR (Molecular Device Corp.). 50 μL it of leukotriene D4 that had been diluted with Hanks BSS including 20 mM HEPES to a final concentration of 10 nM at 10 seconds after the initiation of measurement was added thereto, fluorescence intensities were measured every second for 50 seconds and every sixth second for 2 minutes, and a maximum fluorescence intensity during a measurement time of 3 minutes was observed. By plotting the concentrations and the fluorescence intensities of the test compounds, the IC50 values were calculated, which were taken as Gq/11 inhibitory activities.
row,IC50 [nM],Structure (SMILES)
1,25,C=C1C(=O)NC(C)C(=O)N(C)C(C)C(=O)NC(C(OC(=O)C(NC(C)=O)C(O)C(C)C)C(C)C)C(=O)N(C)C(C(C)OC)C(=O)OC(C)C(NC(C)=O)C(=O)OC(Cc2ccccc2F)C(=O)N1C (centres unmarked) [Ref 5] (Ac-T[X7][NMeDha]A[NMeA][X8][NMeT](Me); ester 1-C; configuration not given here)

# Same assay, conditions: read-out: Gq/11 inhibitory activities (IC50 values), 10 nM LTD4, maximum Fluo-4 fluorescence intensity
row,Structure (SMILES),IC50 [nM]
1,C=C1C(=O)NC(C)C(=O)N(C)C(C)C(=O)NC(C(OC(=O)C(NC(=O)CCC)C(O)C(C)C)C(C)C)C(=O)N(C)C(C(C)OC)C(=O)OC(C)C(NC(C)=O)C(=O)OC(Cc2ccccc2)C(=O)N1C (centres unmarked) [Ex1] (Ac-T[PhLac][NMeDha]A[NMeA][X3](X4)[NMeT](Me); ester 1-C; configuration not given here),31
2,C=C1C(=O)NC(C)C(=O)N(C)C(C)C(=O)NC(C(OC(=O)C(NC(C)=O)C(O)C(C)C)C(C)C)C(=O)N(C)C(C(C)O)C(=O)OC(C)C(NC(C)=O)C(=O)OC(Cc2ccccc2)C(=O)N1C (centres unmarked) [Ex2] (Ac-T[PhLac][NMeDha]A[NMeA][X8][NMeT]; ester 1-C; configuration not given here),317
3,C=C1C(=O)NC(C)C(=O)N(C)C(C)C(=O)NC(C(OC(=O)C(NC(C)=O)C(O)CSC)C(C)C)C(=O)N(C)C(C(C)OC)C(=O)OC(C)C(NC(C)=O)C(=O)OC(Cc2ccccc2)C(=O)N1C (centres unmarked) [Ex3] (Ac-T[PhLac][NMeDha]A[NMeA][X2][NMeT](Me); ester 1-C; configuration not given here),97
4,C=C1C(=O)NC(C)C(=O)N(C)C(C)C(=O)NC(C(OC(=O)C(NC(C)=O)C(O)CSC)C(C)C)C(=O)N(C)C(C(C)OC)C(=O)OC(C)C(NC(C)=O)C(=O)OC(Cc2ccccc2)C(=O)N1C (centres unmarked) [Ex4] (Ac-T[PhLac][NMeDha]A[NMeA][X2][NMeT](Me); ester 1-C; configuration not given here),365
5,C=C1C(=O)NC(C)C(=O)N(C)C(C)C(=O)NC(C(OC(=O)C(NC(=O)CC)C(O)C(C)C)C(C)C)C(=O)N(C)C(C(C)OC)C(=O)OC(C)C(NC(C)=O)C(=O)OC(Cc2ccccc2)C(=O)N1C (centres unmarked) [Ref 2] (Ac-T[PhLac][NMeDha]A[NMeA][X3](X6)[NMeT](Me); ester 1-C; configuration not given here),34
6,C=C1C(=O)NC(C)C(=O)N(C)C(C)C(=O)NC(C(OC(=O)C(NC(=O)CSC)C(O)C(C)C)C(C)C)C(=O)N(C)C(C(C)OC)C(=O)OC(C)C(NC(C)=O)C(=O)OC(Cc2ccccc2)C(=O)N1C (centres unmarked) [Ref 3] (Ac-T[PhLac][NMeDha]A[NMeA][X3](X5)[NMeT](Me); ester 1-C; configuration not given here),56
7,COC(C)C1C(=O)OC(C)C(NC(C)=O)C(=O)OC(Cc2ccccc2)C(=O)N(C)C(C)C(=O)NC(C)C(=O)N(C)C(C)C(=O)NC(C(OC(=O)C(NC(C)=O)C(O)C(C)C)C(C)C)C(=O)N1C (centres unmarked) [Ref 7] (Ac-T[PhLac][NMeA]A[NMeA][X8][NMeT](Me); ester 1-C; configuration not given here),32
